Experiments:
[1] = target: T1, Adrenergic α2C Receptor (Homo sapiens, UniProt P18825); experiment: Radioligand binding, [3H] MK-912; details: compound at 10 μM
T1 construct: expressed in transfected cells; host or cells: insect Sf9 cells
T1 sequence (P18825 1-462): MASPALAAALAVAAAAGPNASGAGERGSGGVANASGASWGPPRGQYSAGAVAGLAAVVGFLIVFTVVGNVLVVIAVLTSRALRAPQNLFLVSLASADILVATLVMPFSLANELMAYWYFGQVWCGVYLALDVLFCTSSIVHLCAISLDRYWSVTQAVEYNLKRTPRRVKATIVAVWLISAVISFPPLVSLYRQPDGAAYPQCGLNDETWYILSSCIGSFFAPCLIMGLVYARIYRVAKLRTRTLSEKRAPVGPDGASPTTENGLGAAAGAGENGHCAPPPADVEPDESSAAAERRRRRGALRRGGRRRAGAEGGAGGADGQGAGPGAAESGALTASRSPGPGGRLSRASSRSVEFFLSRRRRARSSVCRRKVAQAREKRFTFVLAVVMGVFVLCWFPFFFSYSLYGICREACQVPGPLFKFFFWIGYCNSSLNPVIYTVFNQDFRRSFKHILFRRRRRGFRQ
Experimental: (§1) Compounds of the invention were subjected to specific binding assays to test their ability to bind to the receptors and transporter proteins described below.
(c) Adrenergic α2C Receptor:
• Reference: S. Uhlçn et al. J. Pharmacol. Exp. Ther., 271:1558-1565 (1994) • Source: Human recombinant insect Sf9 cells • Ligand: 1 nM [^3H]

[2] = target: T2, Dopamine D1 Receptor (Homo sapiens, UniProt P21728); experiment: Radioligand binding, [3H] SCH-23390; details: compound at 10 μM
T2 construct: expressed in transfected cells; host or cells: CHO cells
Experimental: as §1
(§2) (d) Dopamine D1 Receptor:
(§3) • Reference: Dearry et al., Nature, 347:72-76, (1990) • Source: Human recombinant CHO cells • Ligand: 1.4 nM [3H] SCH-23390 • Vehicle: 1% DMSO • Incubation time/Temp: 2 hours @ 37° C. • Incubation buffer: 50 mM Tris-HCl, pH 7.4, 150 mM NaCl, 1.4 mM ascorbic acid, 0.001% BSA • Non Specific ligand: 10 μM (+)-butaclamol • Kd: 1.4 nM • Bmax: 0.63 pmole/mg protein • Specific binding: 90% • Quantitation method: Radioligand binding • Significance criteria: ≧50% of maximum stimulation or inhibition

[3] = test system: dopamine receptors; experiment: Receptor binding studies, overall statement on dopamine receptors; parameters: species or system Human; details: conclusion from % inhibition at 10 μM
Experimental: as §2, §3
(e) Dopamine D2L Receptor:
• Reference: Grandy et al., Proc. Natl. Acad. Sci. USA, 86:9762-9766 (1989) • Source: Human recombinant CHO cells • Ligand: 0.16 nM [^3H]
(f) Dopamine D2S Receptor:
(g) Dopamine D3 Receptor:
• Reference: Sokoloff et al., Nature, 347:146-151, (1990) • Source: Human recombinant CHO cells • Ligand: 0.7 nM [3H]
(h) Dopamine D4.2 Receptor:
• Reference: Van Tol et al., Nature, 350:610-614 (1991) • Source: Human recombinant CHO-K1 cells • Ligand: 0.5 nM [^3H]
(i) Dopamine D4.4 Receptor:
• Reference: Van Tol et al., Nature, 350:610-614 (1991) • Source: Human recombinant CHO-K1 cells • Ligand: 1.2 nM [^3H]
(j) Dopamine D4.7 Receptor:
• Reference: Van Tol et al., Nature, 350:610-614 (1991) • Source: Human recombinant CHO-K1 cells • Ligand: 1.5 nM [^3H]

T2 sequence (P21728 whole entry): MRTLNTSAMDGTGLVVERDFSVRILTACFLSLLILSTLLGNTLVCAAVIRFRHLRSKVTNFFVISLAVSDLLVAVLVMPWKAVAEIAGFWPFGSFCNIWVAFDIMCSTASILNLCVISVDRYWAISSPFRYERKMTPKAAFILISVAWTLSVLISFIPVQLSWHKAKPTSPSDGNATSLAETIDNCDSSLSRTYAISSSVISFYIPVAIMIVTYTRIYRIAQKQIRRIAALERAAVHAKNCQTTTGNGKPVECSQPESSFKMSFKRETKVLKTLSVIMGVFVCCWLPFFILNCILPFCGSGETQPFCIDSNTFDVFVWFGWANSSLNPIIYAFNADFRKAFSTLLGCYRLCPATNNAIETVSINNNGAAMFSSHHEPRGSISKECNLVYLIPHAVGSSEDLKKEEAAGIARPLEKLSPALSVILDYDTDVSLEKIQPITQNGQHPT

Row | SMILES | % inhibition, (c) α2C Receptor [1] [%] | % inhibition, (d) D1 Receptor [2] [%] | inhibition of dopamine receptors (result in words) [3]
1 | COc1cc2c(cc1O)[C@@H]1C[C@@H](O)[C@H](CC(C)C)CN1CC2 (single isomer, unassigned) [(+)-10-desmethyl-γ-dihydrotetrabenazine] | −7 | 29 | 
2 | COc1cc2c(cc1O)[C@@H]1C[C@@H](O)[C@H](CC(C)C)CN1CC2 (single isomer, unassigned) [(−)-10-desmethyl-γ-dihydrotetrabenazine] | 60 | 96 | potent inhibitor of dopamine receptors

— patent US20100087475A1, “PHARMACEUTICAL COMPOUNDS” (Biovali Laboratories International (Barbados) S.R.L., priority 2008, published 2010)
